What was measured:
hCaSR = target: T1, hCaSR (Homo sapiens, UniProt P41180); assay: Fluo-4 calcium assay in cells transfected with hCaSR; type: cell-based; conditions: transient transfection; calcium chloride 2 mM, sucralose 0.5 mM, aspartame 0.85 mM, perillartine 50 μM, cinnamonitrile 100 μM, cyclamate 1 mM, NDHC 0.33 mM; six replicates
T1 construct: full length cDNAs encoding the human CaSR (commercially available from Origene Inc., USA); host or cells: HEK293T cells stably expressing Galpha16gust44
T1 sequence (P41180 20-1078): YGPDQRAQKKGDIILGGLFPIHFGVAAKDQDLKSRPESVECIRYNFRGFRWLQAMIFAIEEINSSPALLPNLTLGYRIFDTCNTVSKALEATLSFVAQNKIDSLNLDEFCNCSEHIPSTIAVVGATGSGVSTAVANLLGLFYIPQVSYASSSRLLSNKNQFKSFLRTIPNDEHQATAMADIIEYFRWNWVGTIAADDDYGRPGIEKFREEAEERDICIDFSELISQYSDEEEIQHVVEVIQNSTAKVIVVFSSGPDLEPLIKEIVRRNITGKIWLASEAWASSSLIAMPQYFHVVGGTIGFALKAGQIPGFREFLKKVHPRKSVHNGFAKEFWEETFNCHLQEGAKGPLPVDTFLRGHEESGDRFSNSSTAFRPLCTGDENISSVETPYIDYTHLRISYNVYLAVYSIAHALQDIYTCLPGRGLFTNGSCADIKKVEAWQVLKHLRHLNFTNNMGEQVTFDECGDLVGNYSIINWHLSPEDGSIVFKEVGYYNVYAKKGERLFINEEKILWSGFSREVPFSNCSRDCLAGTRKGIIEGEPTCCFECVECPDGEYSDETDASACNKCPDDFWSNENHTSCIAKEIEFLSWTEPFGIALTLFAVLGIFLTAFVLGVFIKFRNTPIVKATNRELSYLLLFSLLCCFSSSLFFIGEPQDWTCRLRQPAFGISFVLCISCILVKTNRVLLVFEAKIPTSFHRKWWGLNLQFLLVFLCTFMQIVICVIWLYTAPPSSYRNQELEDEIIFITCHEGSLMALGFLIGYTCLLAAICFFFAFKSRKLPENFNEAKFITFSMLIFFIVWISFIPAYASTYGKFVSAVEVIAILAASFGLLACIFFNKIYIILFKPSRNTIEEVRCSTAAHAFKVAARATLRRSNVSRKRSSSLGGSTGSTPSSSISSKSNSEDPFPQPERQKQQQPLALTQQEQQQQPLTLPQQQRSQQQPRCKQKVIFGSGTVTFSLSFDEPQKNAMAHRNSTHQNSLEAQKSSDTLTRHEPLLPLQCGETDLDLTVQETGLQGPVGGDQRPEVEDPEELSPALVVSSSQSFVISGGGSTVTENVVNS

[1] = target: T2, transmembrane domains of TAS1R (Homo sapiens, UniProt Q7RTX0+Q8TE23, C757R); assay: Identification of candidate sweetness enhancers that bind to the transmembrane domains; type: binding; conditions: identified by the applicants as candidate sweetness enhancers
T2 sequence (Q8TE23 20-839): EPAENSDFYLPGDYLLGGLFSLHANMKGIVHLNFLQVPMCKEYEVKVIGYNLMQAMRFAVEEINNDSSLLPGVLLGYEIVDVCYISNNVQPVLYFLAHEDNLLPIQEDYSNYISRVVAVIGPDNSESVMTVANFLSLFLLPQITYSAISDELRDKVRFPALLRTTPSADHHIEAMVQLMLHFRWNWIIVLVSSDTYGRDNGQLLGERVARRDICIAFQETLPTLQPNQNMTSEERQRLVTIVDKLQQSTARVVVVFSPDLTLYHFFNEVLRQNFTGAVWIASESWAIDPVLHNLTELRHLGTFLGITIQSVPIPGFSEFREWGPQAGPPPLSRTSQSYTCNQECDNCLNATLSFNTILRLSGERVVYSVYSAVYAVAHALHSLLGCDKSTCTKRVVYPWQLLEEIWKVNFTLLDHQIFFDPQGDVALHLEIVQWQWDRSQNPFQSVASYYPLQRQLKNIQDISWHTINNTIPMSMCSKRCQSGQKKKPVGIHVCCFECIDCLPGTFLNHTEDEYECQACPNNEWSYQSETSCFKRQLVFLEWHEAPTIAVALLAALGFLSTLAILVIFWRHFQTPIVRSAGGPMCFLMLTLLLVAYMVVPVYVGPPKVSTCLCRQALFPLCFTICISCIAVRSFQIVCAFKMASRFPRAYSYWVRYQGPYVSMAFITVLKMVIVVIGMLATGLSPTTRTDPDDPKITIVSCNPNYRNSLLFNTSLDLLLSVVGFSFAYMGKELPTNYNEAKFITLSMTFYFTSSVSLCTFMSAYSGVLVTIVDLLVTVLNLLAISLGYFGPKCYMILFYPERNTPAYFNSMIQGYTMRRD
T2 sequence (Q7RTX0 21-852 C757R): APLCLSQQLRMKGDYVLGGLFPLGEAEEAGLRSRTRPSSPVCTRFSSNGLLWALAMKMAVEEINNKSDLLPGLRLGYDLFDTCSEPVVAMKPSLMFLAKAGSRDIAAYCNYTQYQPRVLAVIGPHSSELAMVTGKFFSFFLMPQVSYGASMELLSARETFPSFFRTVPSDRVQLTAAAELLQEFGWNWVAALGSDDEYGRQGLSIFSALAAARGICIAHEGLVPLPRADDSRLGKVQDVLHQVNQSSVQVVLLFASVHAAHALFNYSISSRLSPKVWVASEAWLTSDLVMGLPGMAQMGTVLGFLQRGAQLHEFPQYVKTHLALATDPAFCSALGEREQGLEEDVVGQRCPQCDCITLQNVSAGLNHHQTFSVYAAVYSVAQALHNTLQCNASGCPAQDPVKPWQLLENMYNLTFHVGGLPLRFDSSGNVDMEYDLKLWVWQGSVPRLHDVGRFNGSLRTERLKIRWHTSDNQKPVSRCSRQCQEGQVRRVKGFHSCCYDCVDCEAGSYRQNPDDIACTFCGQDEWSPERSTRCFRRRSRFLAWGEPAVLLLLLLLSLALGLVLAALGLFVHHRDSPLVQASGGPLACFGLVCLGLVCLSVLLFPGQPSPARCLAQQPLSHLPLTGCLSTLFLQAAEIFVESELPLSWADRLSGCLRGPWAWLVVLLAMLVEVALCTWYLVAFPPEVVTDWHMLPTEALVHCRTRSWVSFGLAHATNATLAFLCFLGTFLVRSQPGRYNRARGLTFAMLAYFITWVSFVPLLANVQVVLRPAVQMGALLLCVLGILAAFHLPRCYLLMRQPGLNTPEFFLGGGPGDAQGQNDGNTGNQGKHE

HEK293T/Gα16gust44 cells = assay: Fluo-4 calcium assay, negative control cells expressing Gα16gust44 only (mock transfected); type: cell-based, human; conditions: for Neg. control (mock transfection) AVG: calcium chloride 2 mM, sucralose 0.5 mM, aspartame 0.85 mM, perillartine 50 μM, cinnamonitrile 100 μM, cyclamate 1 mM, NDHC 0.33 mM, six replicates
[2] = test system: sweet sensitive panelists; assay: Forced choice test of sweetness versus sucrose, sensory panel; type: in vivo, human; conditions: 1% sucrose, comparison with 60 ppm swingle extract; highest imaginable sweetness rates as 10
Method: A forced choice sensory evaluation of […] extract as a sweetener was performed as described in example 13 (see also for forced choice method, O'Mahony, 1992, J. Sens. Stud., 7:1-47), subject to the following modifications: […]

[3] = test system: sweet sensitive panelists; assay: Ranking test of sweetness isointensity (R-index), sensory panel; type: in vivo, human
Method: (§1) The sensory evaluation was conducted using a ranking method. Samples at ambient temperature were randomly presented in 15 ml blind aliquots (unidentifiable by panelists). Panels consisted of 10 sweet sensitive subjects and samples were presented in 3 replications over 1 session. After tasting each sample, the mouth was rinsed thoroughly with water at ambient temperature prior to tasting the next sample. […] They were asked to rank the samples from low to high with respect to perceived sweet taste.
as §1, with “taste. […] From ranking-style sensory tests, a matrix of responses (see table X below) is constructed such that each cell contains the number of times a given sample was ranked at a particular location.” for “taste.”
Essentially, the R-index is a measure of difference between two samples. The R-index has a chance level of detection of 50%. […] The critical value is the statistically relevant value that the derived R-index must deviate from (i.e greater or less than) in order to be considered significant.

T1R2-TMD = target: T3, T1R2-TMD (Homo sapiens, UniProt Q8TE23)
T3 sequence (Q8TE23 564-839): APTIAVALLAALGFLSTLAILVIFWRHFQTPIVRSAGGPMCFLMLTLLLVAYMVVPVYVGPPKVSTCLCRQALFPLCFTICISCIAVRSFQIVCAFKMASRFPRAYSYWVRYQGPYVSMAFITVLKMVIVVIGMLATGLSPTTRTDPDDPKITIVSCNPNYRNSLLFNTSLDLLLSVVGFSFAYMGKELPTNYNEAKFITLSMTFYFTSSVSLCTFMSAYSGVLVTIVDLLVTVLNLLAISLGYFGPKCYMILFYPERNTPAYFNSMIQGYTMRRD

[4] = 0.5% sucrose in 1700 ppm cyclamate vs 1700 ppm cyclamate
[5] = 0.5% sucrose in 1700 ppm cyclamate vs 1900 ppm cyclamate
[6] = 0.5% sucrose in 1700 ppm cyclamate vs 2100 ppm cyclamate
[7] = 0.5% sucrose in 1700 ppm cyclamate vs 2300 ppm cyclamate
[8] = 0.5% sucrose in 1700 ppm cyclamate vs 2500 ppm cyclamate
[9] = 0.5% sucrose in aqueous 600 ppm p-ethoxybenzaldehyde vs 600 ppm p-ethoxybenzaldehyde
[10] = 0.5% sucrose in aqueous 600 ppm p-ethoxybenzaldehyde vs 700 ppm p-ethoxybenzaldehyde

For N#CC=Cc1ccccc1 [cinnamonitrile], the “hCaSR AVG” value (hCaSR) was 197 RFU, the “binding to the transmembrane domains of TAS1R” value [1] was “bind to the transmembrane domains of TAS1R” and the “Neg. control (mock transfection) AVG” value (HEK293T/Gα16gust44 cells) was −998 RFU.

In the case of OC[C@H]1O[C@@](CO)(O[C@H]2O[C@H](CO)[C@@H](O)[C@H](O)[C@H]2O)[C@@H](O)[C@@H]1O [sucrose, α-D-glucopyranosyl-(1→2)-β-D-fructofaranose], the sweetness intensity rating [2] is reported as 0.72, the “cyclamate equivalent in sweetness added” value ([3]; 0.5% sucrose in 1700 ppm cyclamate) is reported as 200 ppm cyclamate and the R-index [3, 4] is reported as 85%. The sucrose sample sweetness [3, 4] was “sweeter”, the R-index [3, 5] was 60% and the sucrose sample sweetness [3, 5] was “isosweet”. For the same molecule, the R-index [3, 6] was 21%, the sucrose sample sweetness [3, 6] was “less sweet” and the R-index [3, 7] was 7%. For the same molecule, the sucrose sample sweetness [3, 7] was “less sweet”, the R-index [3, 8] was 4% and the sucrose sample sweetness [3, 8] was “less sweet”. For the same molecule, the p-ethoxybenzaldehyde isointensity ([3]; 0.5% sucrose in aqueous 600 ppm p-ethoxybenzaldehyde) was 700 ppm p-ethoxybenzaldehyde, the R-index [3, 9] was 68% and the mixture sample sweetness [3, 9] was “sweeter”. The R-index [3, 10] was 59%, the mixture sample sweetness [3, 10] was “isosweet” and the cyclamate isointensity ([3]; 1700 ppm cyclamate+0.5% sucrose) was 1900 ppm cyclamate.

In the case of OC[C@H]1O[C@H](O[C@]2(CCl)O[C@H](CCl)[C@@H](O)[C@@H]2O)[C@H](O)[C@@H](O)[C@H]1Cl [Sucralose, 6-dichloro-1,6-dideoxy-β-D-fructo-furanosyl 4-chloro-4-deoxy-α-D-galactopyranoside], the “hCaSR AVG” value (hCaSR) is reported as 22 RFU and the “Neg. control (mock transfection) AVG” value (HEK293T/Gα16gust44 cells) is reported as −186 RFU.

In the case of C=C(C)[C@@H]1CC=C(/C=N/O)CC1 [perillartine], the “hCaSR AVG” value (hCaSR) is reported as 73 RFU, the “AVERAGE fluorescence increase, T1R2-TMD/Gα16gust44” value (T1R2-TMD; 50 μM perillartine) is reported as 973.06 RFU and the “increase in fluorescence compared to the signal of the negative control” value (T1R2-TMD; perillartine, many cell clones, vs cells expressing Gα16gust44 but not T1R2-TMD) is reported as “greater than 10 times”. For the same molecule, the “binding to the transmembrane domains of TAS1R” value [1] was “bind to the transmembrane domains of TAS1R”, the “AVERAGE fluorescence increase, Gα16gust44 ONLY (neg. control)” value (HEK293T/Gα16gust44 cells; 50 μM perillartine) was 73.78 RFU and the “Neg. control (mock transfection) AVG” value (HEK293T/Gα16gust44 cells) was −379 RFU.

In the case of [Ca+2].[Cl-].[Cl-] [Calcium, calcium chloride], the “hCaSR AVG” value (hCaSR) is reported as 7610 RFU and the “Neg. control (mock transfection) AVG” value (HEK293T/Gα16gust44 cells) is reported as 1570 RFU.
